Results as given in patent publication US11225462B2, “Crystal forms of oxypyridine amide derivative and preparation method therefor” (JIANGSU HENGRUI MEDICINE CO., LTD., priority 2018, dated 2022).

Assays:
FXIa = FXIa (Homo sapiens, UniProt P03951); settings: reported in WO 2018041122; cited from earlier work
human blood = settings: reported in WO 2018041122; cited from earlier work
[1] = reported in WO 2018041122; cited from earlier work
[2] = DVS (dynamic vapor sorption) hygroscopicity characterization; type: physicochemical
Procedure: DVS refers to dynamic vapor sorption and is determined using SMS DVS Advantage at 25° C., with the humidity change of 50%-95%-0%-95%-50% and the stepping of 10% (5% for the last step) (the specific humidity range is determined in accordance with the corresponding plot, and the methods listed herein are those most commonly used), and the standard for determination is as follow: dm/dt is not more than 0.02%, and Tmax is not more than 360 min.

[3] = Influencing factor experiments (light, high temperature, high humidity, 30 days); type: physicochemical
Procedure: Crystal forms A, B, D and F of the compound of formula (I) were spread and left open to the air, and under conditions of high temperature (40° C. and 60° C.), light (4500 Lux), high humidity (RH 75% and RH 90%), the stability thereof were investigated for a period of 30 days.

[4] = Long-term and accelerated stability experiments (3 months); type: physicochemical
Procedure: The long-term (25° C., 60% RH) and accelerated (40° C., 75% RH) stability of crystal form A and crystal form F of the compound of formula (I) were investigated for 3 months.

Chain of FXIa (P03951 388-625 limits assumed): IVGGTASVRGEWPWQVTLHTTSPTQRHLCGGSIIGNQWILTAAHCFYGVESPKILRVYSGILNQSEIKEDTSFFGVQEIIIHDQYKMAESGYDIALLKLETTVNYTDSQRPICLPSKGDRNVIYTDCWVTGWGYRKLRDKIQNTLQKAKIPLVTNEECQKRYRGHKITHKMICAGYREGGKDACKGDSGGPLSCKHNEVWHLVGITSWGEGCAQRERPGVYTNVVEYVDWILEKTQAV
Chain of FXIa (P03951 19-387 partner limits assumed): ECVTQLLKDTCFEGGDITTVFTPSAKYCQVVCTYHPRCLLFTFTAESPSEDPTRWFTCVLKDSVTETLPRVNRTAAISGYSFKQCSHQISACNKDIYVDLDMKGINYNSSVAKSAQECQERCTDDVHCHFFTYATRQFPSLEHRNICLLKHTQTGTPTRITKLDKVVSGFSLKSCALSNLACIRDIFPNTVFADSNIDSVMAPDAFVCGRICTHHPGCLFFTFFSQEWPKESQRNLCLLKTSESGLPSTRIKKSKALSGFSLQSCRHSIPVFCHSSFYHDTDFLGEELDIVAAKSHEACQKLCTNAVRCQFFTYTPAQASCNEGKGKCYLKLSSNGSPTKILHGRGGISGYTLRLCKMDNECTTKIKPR

Structure (SMILES): CCC(=O)c1ccc(Cl)cc1-c1cc(=O)n([C@@H](CCOC(C)(C)C)C(=O)Nc2ccc(C(=O)O)cc2)cc1OC [compound of formula (I), (S)-4-(4-(tert-butoxy)-2-(4-(5-chloro-2-propionylphenyl)-5-methoxy-2-oxopyridin-1(2H)-yl)butanamido)benzoic acid]
- inhibitory effect on FXIa (FXIa): significant inhibitory effect
- anticoagulant effect on human blood (human blood): significant anticoagulant effect
- pharmacokinetic absorption [1]: good pharmacokinetic absorption

Structure (SMILES): CCC(=O)c1ccc(Cl)cc1-c1cc(=O)n([C@@H](CCOC(C)(C)C)C(=O)Nc2ccc(C(=O)O)cc2)cc1OC [Crystal form F, (S)-4-(4-(tert-butoxy)-2-(4-(5-chloro-2-propionylphenyl)-5-methoxy-2-oxopyridin-1(2H)-yl)butanamido)benzoic acid]
- mass increase under normal conditions ([2]; 25° C. and 60% RH): about 0.0457%
- hygroscopicity according to guidelines for drug hygroscopicity test in China Pharmacopoeia (2015 edition) ([2]; 25° C., 10% RH to 80% RH): hardly hygroscopic (less than 2%)
- mass increase as the humidity increases ([2]; 25° C., 10% RH to 80% RH): about 0.1464%
- mass increase under accelerated test conditions ([2]; 70% RH): about 0.0701%
- mass increase under extreme conditions ([2]; 90% RH): about 0.2744%
- crystal form before and after DVS detection (XRPD comparison) ([2]; after DVS detection): unchanged
- desorption process and adsorption process of the sample ([2]; humidity change from 0% to 95%): basically coincide
- % Purity ([3]; 40° C., 5 days): 99.67%
- % Purity ([3]; 40° C., 10 days): 99.62%
- % Purity ([3]; 40° C., 30 days): 99.57%
- % Purity ([3]; 60° C., 5 days): 99.68%
- % Purity ([3]; 60° C., 10 days): 99.65%
- % Purity ([3]; 60° C., 30 days): 99.59%
- % Purity ([3]; 4500 Lux, 5 days): 99.66%
- % Purity ([3]; 4500 Lux, 10 days): 99.64%
- % Purity ([3]; 4500 Lux, 30 days): 99.64%
- % Purity ([3]; Initial condition, day 0): 99.67%
- % Purity ([3]; RH 75%, 5 days): 99.65%
- % Weight gain ([3]; RH 75%, 5 days): 5.23%
- % Purity ([3]; RH 75%, 10 days): 99.63%
- % Weight gain ([3]; RH 75%, 10 days): 5.34%
- % Purity ([3]; RH 75%, 30 days): 99.62%
- % Weight gain ([3]; RH 75%, 30 days): 10.03%
- % Purity ([3]; RH 90%, 5 days): 99.66%
- % Weight gain ([3]; RH 90%, 5 days): 7.26%
- % Purity ([3]; RH 90%, 10 days): 99.63%
- % Weight gain ([3]; RH 90%, 10 days): 8.40%
- % Purity ([3]; RH 90%, 30 days): 99.65%
- % Weight gain ([3]; RH 90%, 30 days): 12.83%
- physical and chemical stability (conclusion) ([3]; light, 40° C., 60° C., 75% RH or 90% RH for 30 days): good physical and chemical stability
- % Purity 1 month ([4]; 25° C., 60% RH): 99.68%
- % Purity 2 months ([4]; 25° C., 60% RH): 99.65%
- % Purity 3 months ([4]; 25° C., 60% RH): 99.65%
- % Purity Initial condition ([4]; 25° C., 60% RH): 99.69%
- % Purity 1 month ([4]; 40° C., 75% RH): 99.68%
- % Purity 2 months ([4]; 40° C., 75% RH): 99.67%
- % Purity 3 months ([4]; 40° C., 75% RH): 99.66%
- % Purity Initial condition ([4]; 40° C., 75% RH): 99.69%
- physical and chemical stability (conclusion) ([4]; long-term (25° C., 60% RH) and accelerated (40° C., 75% RH) conditions for 3 months): good physical and chemical stability
